These molecules were tested against T1, Human glycogen phosphorylase a (Homo sapiens, UniProt P06737) (assay: Glycogen phosphorylase a activity test). Conditions: 10 μM concentration of the test substance; GPa measured in the reverse direction, in vitro.
T1 sequence (P06737 1-847): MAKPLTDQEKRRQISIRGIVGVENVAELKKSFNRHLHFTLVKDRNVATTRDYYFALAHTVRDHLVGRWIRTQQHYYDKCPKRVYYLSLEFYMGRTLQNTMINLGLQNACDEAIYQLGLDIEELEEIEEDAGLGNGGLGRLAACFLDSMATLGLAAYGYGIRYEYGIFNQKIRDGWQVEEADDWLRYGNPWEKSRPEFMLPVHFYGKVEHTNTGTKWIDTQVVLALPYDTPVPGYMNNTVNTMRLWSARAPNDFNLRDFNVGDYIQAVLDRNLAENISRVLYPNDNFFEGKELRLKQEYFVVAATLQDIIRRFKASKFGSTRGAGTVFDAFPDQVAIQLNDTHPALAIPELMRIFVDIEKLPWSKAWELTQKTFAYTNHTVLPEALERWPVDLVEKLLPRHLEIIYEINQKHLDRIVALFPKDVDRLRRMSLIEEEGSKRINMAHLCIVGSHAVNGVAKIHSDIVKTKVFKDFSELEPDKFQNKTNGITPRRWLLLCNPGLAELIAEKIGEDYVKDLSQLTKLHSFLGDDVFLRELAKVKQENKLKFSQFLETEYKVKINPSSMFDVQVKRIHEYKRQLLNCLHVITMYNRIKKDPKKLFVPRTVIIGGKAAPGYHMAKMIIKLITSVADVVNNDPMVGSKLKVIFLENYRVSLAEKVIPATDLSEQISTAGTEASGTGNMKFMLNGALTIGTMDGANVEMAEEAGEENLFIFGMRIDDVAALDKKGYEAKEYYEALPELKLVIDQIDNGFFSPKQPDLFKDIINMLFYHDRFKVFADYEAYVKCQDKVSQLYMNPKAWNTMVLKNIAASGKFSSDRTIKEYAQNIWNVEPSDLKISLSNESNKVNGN
Format: biochemical
Protocol: Glycogen Phosphorylase a Activity Test
The effect of compounds on the activity of the active form of glycogen phosphorylase (GPa) was measured in the reverse direction by monitoring the synthesis of glycogen from glucose 1-phosphate by determining the release of inorganic phosphate. All the reactions were carried out as duplicate determinations in 96-well microtiter plates (Half Area Plates, Costar No. 3696), with the change in absorption due to the formation of the reaction product being measured, at the wavelength specified below, in a Multiscan Ascent Elisa Reader (Lab Systems, Finland). In order to measure the enzymic activity of GPa in the reverse direction, the conversion of glucose 1-phosphate into glycogen and inorganic phosphate was measured in accordance with the general method of Engers et al. (Engers HD, Shechosky S, Madsen NB, Can J Biochem 1970 July;48(7): 746–754) but with the following modifications: Human glycogen phosphorylase a (for example containing 0.76 mg of protein/ml (Aventis Pharma Deutschland GmbH), dissolved in buffer solution E (25 mM β-glycerophosphate, pH 7.0, 1 mM EDTA and 1 mM dithiothreitol), was diluted with buffer T (50 mM Hepes, pH 7.0, 100 mM KCl, 2.5 mM EDTA, 2.5 mM MgCl2.6H2O), and addition of 5 mg of glycogen/ml, to a concentration of 10 μg of protein/ml. Test substances were prepared as a 10 mM solution in DMSO and diluted down to 50 μM with buffer solution T. 10 μl of 37.5 mM glucose, dissolved in buffer solution T and 5 mg/ml of glycogen, and also 10 μl of a solution of human glycogen phosphorylase a (10 μg of protein/ml) and 20 μl of glucose 1-phosphate, 2.5 mM, were added to […] of the solution. The basal value of the activity of the glycogen phosphorylase a in the absence of test substance was determined by adding 10 μl of buffer solution T (0.1% DMSO). The mixture was incubated at room temperature for 40 minutes and the inorganic phosphate which was released was measured using the general method of Drueckes et al. (Drueckes P, Schinzel R, Palm D, Anal Biochem […] Sep. 1;230(10):173–177) but with the following modifications: 50 μl of a stop solution of 7.3 mM ammonium molybdate, 10.9 mM zinc acetate, 3.6% ascorbic acid, 0.9% SDS are added to 50 μl of the enzyme mixture. After 60 minutes of incubation at 45° C., the absorption was measured at 820 nm. In order to determine the background absorption, the stop solution was added immediately after adding the glucose 1-phosphate solution in a separate assay. This test was carried out using a 10 μM concentration of the test substance in order to determine the respective inhibition of glycogen phosphorylase a by the test substance in vitro.

| Compound | inhibition at 10 µM [%] | % inhibition at 10 μM [%] |
| --- | --- | --- |
| COc1ccc(C(=O)O)cc1NC(=O)NC(=O)c1ccc(Cl)cc1Cl [Example 1, 3-[3-(2,4-Dichlorobenzoyl)ureido]-4-methoxybenzoic acid] | 95 | – |
| COc1ccc(C(=O)O)cc1NC(=O)NC(=O)c1ccccc1Cl [Example 2] | – | 75 |
| O=C(NC(=O)c1ccc(Cl)cc1Cl)Nc1cc(C(=O)O)ccc1O [Example 3] | – | 74 |
| O=C(NC(=O)c1ccc(Cl)cc1Cl)Nc1cc(C(=O)O)ccc1F [Example 4] | – | 75 |
| O=C(NC(=O)c1cc(Cl)ccc1Cl)Nc1cc(C(=O)O)ccc1Cl [Example 6] | – | 57 |
| NC(CO)(CO)CO.O=C(NC(=O)c1cc(Cl)ccc1Cl)Nc1cc(C(=O)O)ccc1Cl [Example 7] | – | 54 |
| COc1ccc(C(=O)O)cc1NC(=O)NC(=O)c1ccccc1C [Example 8] | – | 77 |
| COc1ccc(C(=O)O)cc1NC(=O)NC(=O)c1cc(Cl)ccc1Cl [Example 9] | – | 81 |
| COc1ccc(C(=O)O)cc1NC(=O)NC(=O)c1ccc(Cl)c(Cl)c1 [Example 10] | – | 41 |
| O=C(NC(=O)c1ccccc1Cl)Nc1cc(C(=O)O)ccc1Cl [Example 11] | – | 49 |
| O=C(NC(=O)c1ccc(Cl)cc1Cl)Nc1cc(C(=O)O)ccc1Cl [Example 12] | – | 83 |
| CCOc1ccc(C(=O)O)cc1NC(=O)NC(=O)c1ccc(Cl)cc1Cl [Example 13] | – | 86 |
| COc1ccc(C(=O)O)cc1NC(=O)NC(=O)c1ccc(C)cc1C [Example 14] | – | 57 |
| O=C(NC(=O)c1ccc(Cl)cc1F)Nc1cc(C(=O)O)ccc1Cl [Example 15] | – | 61 |
| COc1ccc(C(=O)O)cc1NC(=O)NC(=O)c1ccc(Cl)cc1F [Example 16] | – | 48 |
| O=C(NC(=O)c1ccc(F)cc1F)Nc1cc(C(=O)O)ccc1Cl [Example 17] | – | 52 |
| COc1ccc(C(=O)O)cc1NC(=O)NC(=O)c1ccc(F)cc1F [Example 18] | – | 69 |
| O=C(NC(=O)c1ccc(Cl)cc1Cl)Nc1cc(C(=O)O)ccc1OCCO [Example 19] | – | 90 |
| CCCOc1ccc(C(=O)O)cc1NC(=O)NC(=O)c1ccc(Cl)cc1Cl [Example 20] | – | 62 |
| CCCCOc1ccc(C(=O)O)cc1NC(=O)NC(=O)c1ccc(Cl)cc1Cl [Example 21] | – | 64 |
| COCCOc1ccc(C(=O)O)cc1NC(=O)NC(=O)c1ccc(Cl)cc1Cl [Example 22] | – | 72 |
| O=C(NC(=O)c1ccc(Cl)cc1Cl)Nc1cc(C(=O)O)ccc1Oc1ccccc1 [Example 23] | – | 55 |
| NC(CO)(CO)CO.O=C(NC(=O)c1ccc(Cl)cc1Cl)Nc1cc(C(=O)O)ccc1Oc1ccccc1 [Example 24] | – | 65 |
| O=C(NC(=O)c1ccc(F)cc1Cl)Nc1cc(C(=O)O)ccc1C(F)(F)F [Example 25] | – | 49 |
| O=C(NC(=O)c1ccc(Cl)cc1Cl)Nc1cc(C(=O)O)ccc1C(F)(F)F [Example 26] | – | 44 |

— patent publication US7078404B2, “Acyl-3-carboxyphenylurea derivatives, processes for preparing them and their use” (Sanofi-Aventis Deutschland GmbH, priority 2002, dated 2006)
